Test results from US20060148878A1, “Pseudopolymorphic forms of carvedilol” (priority 2001, published 2006).

Tests used:
[1] = investigations into the gastrointestinal resorption of carvedilol; assay type: in vivo; conditions: compared with resorption in the stomach
[2] = resorption after peroral administration of rapid release carvedilol formulations; assay type: in vivo; conditions: e.g. the commercial formulation
Text: In the case of the peroral administration of rapid release carvedilol formulations, e.g. the commercial formulation, resorption quotas of up to 80% are achieved, with a considerable part of the resorbed carvedilol being very rapidly metabolized.

[3] = pH 1
[4] = dissolution in molten polyethylene glycol 6,000; assay type: physicochemical; conditions: polyethylene glycol 6,000 melted at about 70° C.; carvedilol form I, II or IV dissolved
Protocol: Thus, carvedilol form I, II or IV can be dissolved in polyethylene glycol 6,000 which is melted at about 70° C. […] Further, the compositions in accordance with the invention can contain highly dispersed silicon dioxide as an anti-caking agent.

[5] = active substance resorption / bioavailability of compositions containing carvedilol form IV; assay type: in vivo; conditions: compositions with selected adjuvants, compared with formulations which contain carvedilol forms I or II

| SMILES | resorption in the ileum and colon [1] | resorption quota [2] | solubility in aqueous media [3] | solubility in the strongly acidic region [3] | concentration of carvedilol obtained in polyethylene glycol 6,000 [4] | bioavailability [5] |
| --- | --- | --- | --- | --- | --- | --- |
| COc1ccccc1OCCNCC(O)COc1cccc2[nH]c3ccccc3c12 (racemic) [carvedilol, (±)1-(4-carbazolyloxy)-3-[2-(2-methoxyphenoxy)ethylamino]-2-propanole] | only a fraction of the resorption in the stomach | up to 80% | 1 mg and 100 | very low solubility | up to 500 mg/ml |  |
| COc1ccccc1OCCNCC(O)COc1cccc2[nH]c3ccccc3c12 (racemic) [carvedilol form IV, (±)1-(4-carbazolyloxy)-3-[2-(2-methoxyphenoxy)ethylamino]-2-propanole] |  |  |  |  |  | improved bioavailability |
